Test results as given in patent US7649002B2, “(3,5-dimethylpiperidin-1yl)(4-phenylpyrrolidin-3-yl)methanone derivatives as MCR4 agonists” (Pfizer Inc, priority 2004, dated 2010).
Blank lines part the entries; values can stand above or below the compound they belong to.

Molecular target: T1, human MCR5 receptor (Homo sapiens, UniProt P33032)
T1 construct: expressed in transfected cells
Assay: MCR5 standard functional assay (Protocol D): CHO-K1-MC5R-CRE-β-lactamase reporter
Assay type: cell-based
Conditions: for EC50: Protocol D
Text: These cell lines were engineered using protocols akin to those outlined by Zaccolo et al (Zaccolo, M., (2000) Nature, 2(1); 25-29). Compound-induced activation of the MCR5 or MCR4 receptors in these two cell lines stimulated the production, and intracellular accumulation, of the enzyme β-lactamase. The quantity of β-lactamase enzyme produced was directly proportional to the degree to which the test compound activated the MCR5 or MCR4 receptors present on these cells and was quantified using the P-lactamase gene reporter analysis kit that is commercially available from Invitrogen Life Technologies. An in-depth description of this technology and assay protocols are available from the Invitrogen web site (www.invitrogen.com). The protocol listed below provides a summary of that assay methodology. The quantity of β-lactamase enzyme produced by compound-induced activation of the MCR5 or MCR4 receptors expressed in these cell lines was quantified using a LjI Biosystems Analyst™ HT 96.384 plate reader set to excite at a wave length of 405 nm, and measure the energy emitted at wave lengths of 450 nm and 530 nm. Cellular responses were quantified by dividing the measured energy emitted at a wavelength of 450 nm by the measured energy emitted at a wavelength of 530 nm. […] CCF4-AM was dissolved in 100% DMSO to give a final solution concentration of 1 mM. This solution was termed Solution A. Probenecid was dissolved in 200 mM NaOH to give a final solution concentration of 200 mM. This solution was termed Solution D. Composition of the β-lactamase assay dye solution: for 1072 μL of assay dye solution combine: 12 μL of Solution A, 60 μL of Solution B, 925 μL of Solution C and 75 μL of Solution D. […] Cells were grown in T225 vent cap flasks containing 50 ml of growth medium and maintained in a cell incubator at a temperature of 37° C. and in an environment containing 5% CO2. The composition of the growth medium for the CHO-K1-MC5R-CRE-β-lactamase was 90% v/v DMEM supplemented with; Glutamax-1, 25 mM HEPES, 10% v/v foetal calf serum (FCS), 1 mM sodium pyruvate, 0.1 mM non essential amino acids and 800 μg/ml genetic in. For the CHO-K1-MC4R-CRE-β-lactamase this growth media was further supplemented with […] Zeocin. Cells were harvested when they reached 80-90% confluency by first removing the existing growth medium and then washing with PBS that had been pre-warmed to a temperature of 37° C. This PBS was then removed and 5 ml of cell dissociation fluid added to the flask. These cells were incubated for 5 minutes in a cell incubator set at a temperature of 37° C. and in an environment containing 5% CO2 to detach the cells. When cells were detached, pre-warmed growth media was added, the cells re-suspended and mixed gently to achieve a single cell suspension by pipetting. This cell suspension was then used for experimentation, or transferred into a new T225 flask to perpetuate the cell culture. On the first day of the assay cells were harvested as described above. […] For each assay the cell plates were then retuned to a cell incubator maintained at a temperature of 37° C. and in an environment containing 5% CO2 overnight before performing the assay on the second assay day. […] For the MCR4 improved functional assay methodology the solution of cyclohexamide was not added. Subsequently, 10 μL of the test compound solution was transferred to the assay plate. […] After this incubation period the plate was removed from the incubator, 10 μL of the […] assay dye solution was added to each well and then the plate returned to the cell incubator.

T1 sequence (P33032 whole entry): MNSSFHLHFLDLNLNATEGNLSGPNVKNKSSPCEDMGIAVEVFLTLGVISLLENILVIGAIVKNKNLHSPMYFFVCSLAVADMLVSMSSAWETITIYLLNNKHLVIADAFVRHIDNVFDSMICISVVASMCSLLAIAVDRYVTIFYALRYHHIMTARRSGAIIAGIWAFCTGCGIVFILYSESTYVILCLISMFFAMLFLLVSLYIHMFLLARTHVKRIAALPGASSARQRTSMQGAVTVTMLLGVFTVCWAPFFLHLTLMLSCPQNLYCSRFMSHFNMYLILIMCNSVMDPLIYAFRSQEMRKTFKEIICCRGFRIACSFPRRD

Compound: CC(C)N1C[C@@H](C(=O)N2C[C@@H](C)[C@](O)(c3ccccc3)[C@@H](C)C2)[C@H](c2ccc(F)cc2F)C1.Cl [Example 6, (3R,4R,5S)-1-{[(3S,4R)-4-(2,4-Difluorophenyl)-1-isopropylpyrrolidin-3-yl]carbonyl}-3,5-dimethyl-4-phenylpiperidin-4-ol hydrochloride]
Selectivity MCR5/MCR4 (Table 6, MCR4 by Protocol E): 83
EC50 (Table 6): 1.59 µM

Compound: C[C@@H]1CN(C(=O)[C@@H]2CNC[C@H]2c2ccc(F)cc2F)C[C@H](C)[C@@]1(O)c1ccc(F)cc1.Cl [Example 12, (3R,4R,5S)-1-{[(3S,4R)-4-(2,4-difluorophenyl)pyrrolidin-3-yl]carbonyl}-4-(4-fluorophenyl)-3,5-dimethylpiperidin-4-ol hydrochloride]
Selectivity MCR5/MCR4 (Table 6, MCR4 by Protocol E): 267
EC50 (Table 6): 20 µM

Compound: C[C@@H]1CN(C(=O)[C@@H]2CN(C(C)(C)C)C[C@H]2c2ccc(F)cc2F)C[C@H](C)[C@@]1(O)c1ccccc1 [Example 1, (3R,4R,5S)-1-{[(3S,4R)-1-tert-Butyl-4-(24-difluorophenyl)pyrrolidin-3-yl]carbonyl}-3,5-dimethyl-4-phenylpiperidin-4-ol]
Selectivity MCR5/MCR4 (Table 5, MCR4 by Protocol C): 268
EC50 (Table 5): 6.71 µM
Selectivity MCR5/MCR4 (Table 6, MCR4 by Protocol E): 285

Compound: C[C@@H]1CN(C(=O)[C@@H]2CN(C(C)(C)C)C[C@H]2c2ccc(F)cc2F)C[C@H](C)[C@@]1(O)c1ccc(Cl)cc1.Cl [Example 13, (3R,4R,5S)-1-{[(3S,4R)-1-tert-butyl-4-(2,4-difluorophenyl)pyrrolidin-3-yl]carbonyl}-4-(4-chlorophenyl)-3,5-dimethylpiperidin-4-ol hydrochloride]
Selectivity MCR5/MCR4 (Table 6, MCR4 by Protocol E): 624
EC50 (Table 6): 16.9 µM

Further lines, results first:

Selectivity MCR5/MCR4 (Table 6, MCR4 by Protocol E): 13,333
EC50 (Table 6): 20 µM
Compound: C[C@@H]1CN(C(=O)[C@@H]2CN(c3cccnn3)C[C@H]2c2ccc(F)cc2F)C[C@H](C)[C@@]1(O)c1ccccc1.Cl [Example 35, (3R,4R,5S)-1-{[(3S,4R)-4-(2,4-difluorophenyl)-1-pyridazin-3-ylpyrrolidin-3-yl]carbonyl}-3,5-dimethyl-4-phenylpiperidin-4-ol hydrochloride]

Selectivity MCR5/MCR4 (Table 6, MCR4 by Protocol E): 285
EC50 (Table 6): 2.74 µM
Compound: C[C@@H]1CN(C(=O)[C@@H]2CN(C(C)(C)C)C[C@H]2c2ccc(F)cc2F)C[C@H](C)[C@@]1(O)c1ccccc1.Cl [Example 5, (3R,4R,5S)-1-{[(3S,4R)-1-tert-Butyl-4-(2,4-difluorophenyl)pyrrolidin-3-yl]carbonyl}-3,5-dimethyl-4-phenylpiperidin-4-ol hydrochloride]

Selectivity MCR5/MCR4 (Table 6, MCR4 by Protocol E): 266
EC50 (Table 6): 0.956 µM
Compound: C[C@@H]1CN(C(=O)[C@@H]2CN(c3ccccn3)C[C@H]2c2ccc(F)cc2F)C[C@H](C)[C@@]1(O)c1ccccc1.Cl [Example 31, (3R,4R,5S)-1-{[(3S,4R)-4-(2,4-difluorophenyl)-1-pyridin-2-ylpyrrolidin-3-yl]carbonyl}-3,5-dimethyl-4-phenylpiperidin-4-ol hydrochloride]
